Source: ChEMBL document CHEMBL1201862, “PubChem BioAssay data set” (2004)
Active and inactive are the calls of the source.

How the values were obtained:
[1] = Counterscreen for […] of the human trace amine associated receptor 1 (TAAR1): Fluorescence-based cell-based high throughput dose response assay to identify nonselective Ga16 agonists.; assay type: functional
[2] = target: T1, Trace amine-associated receptor 1 (Homo sapiens, UniProt Q96RJ0); assay: Fluorescence-based cell-based high throughput dose response assay to identify antagonists of the human trace amine associated receptor 1 (TAAR1).; assay type: functional
T1 sequence (Q96RJ0 whole entry): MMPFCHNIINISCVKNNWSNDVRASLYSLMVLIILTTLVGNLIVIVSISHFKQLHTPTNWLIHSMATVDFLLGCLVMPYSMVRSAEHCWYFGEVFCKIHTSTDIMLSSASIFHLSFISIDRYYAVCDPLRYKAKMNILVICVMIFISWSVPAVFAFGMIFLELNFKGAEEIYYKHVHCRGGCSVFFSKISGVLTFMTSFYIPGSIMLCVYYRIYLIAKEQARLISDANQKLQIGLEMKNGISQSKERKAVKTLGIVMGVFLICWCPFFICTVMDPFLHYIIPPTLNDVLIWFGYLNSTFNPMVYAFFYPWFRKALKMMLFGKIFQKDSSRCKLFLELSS

[3] = Counterscreen for antagonists of the human trace amine associated receptor 1 (hTAAR1): Fluorescence-based cell-based high throughput dose response assay to identify nonselective Ga16 antagonists.; assay type: functional
[4] = target: T1, Trace amine-associated receptor 1; assay: Counterscreen for antagonists of the human trace amine associated receptor 1 (hTAAR1): Fluorescence-based cell-based high throughput dose response assay to identify TAAR1 Agonists.; assay type: functional
cells [5] = assay: cells
[6] = target: T2, Oxysterols receptor LXR-beta (Homo sapiens, UniProt P55055); assay type: functional, cell-based
Kallikrein-7 = Kallikrein-7 (Homo sapiens, UniProt P49862); assay: Fluorescence Intensity-based biochemical primary high throughput dose response assay to identify activators of kallikrein-7 (K7) zymogen.
cells [7] = assay: cells; remark: listed apart in the source
[8] = target: Endoplasmic reticulum aminopeptidase 1 (Homo sapiens, UniProt Q9NZ08); assay: ERAP1 aminopeptidase inhibitors, dose response, biochemical, cherry-pick, set 2, plate reader (AID 743314)
[9] = Late stage counterscreen for inhibitors of Trypanosoma brucei methionyl tRNA synthetase (MetRS): Luminescence-based cell-based high throughput dose response assay to identify compounds that are cytotoxic to Jurkat human T lymphocyte cells.; assay type: functional
[10] = Counterscreen for inhibitors of Trypanosoma brucei methionyl tRNA synthetase (MetRS): Luminescence-based cell-based high throughput dose response assay to identify compounds that are cytotoxic to Jurkat human T lymphocyte cells.; assay type: functional
[11] = target: T3, Methionyl-tRNA synthetase, putative (Trypanosoma brucei brucei, UniProt Q38C91); assay type: functional, Trypanosoma brucei brucei strain 927/4 GUTat10.1
T3 sequence (Q38C91 whole entry): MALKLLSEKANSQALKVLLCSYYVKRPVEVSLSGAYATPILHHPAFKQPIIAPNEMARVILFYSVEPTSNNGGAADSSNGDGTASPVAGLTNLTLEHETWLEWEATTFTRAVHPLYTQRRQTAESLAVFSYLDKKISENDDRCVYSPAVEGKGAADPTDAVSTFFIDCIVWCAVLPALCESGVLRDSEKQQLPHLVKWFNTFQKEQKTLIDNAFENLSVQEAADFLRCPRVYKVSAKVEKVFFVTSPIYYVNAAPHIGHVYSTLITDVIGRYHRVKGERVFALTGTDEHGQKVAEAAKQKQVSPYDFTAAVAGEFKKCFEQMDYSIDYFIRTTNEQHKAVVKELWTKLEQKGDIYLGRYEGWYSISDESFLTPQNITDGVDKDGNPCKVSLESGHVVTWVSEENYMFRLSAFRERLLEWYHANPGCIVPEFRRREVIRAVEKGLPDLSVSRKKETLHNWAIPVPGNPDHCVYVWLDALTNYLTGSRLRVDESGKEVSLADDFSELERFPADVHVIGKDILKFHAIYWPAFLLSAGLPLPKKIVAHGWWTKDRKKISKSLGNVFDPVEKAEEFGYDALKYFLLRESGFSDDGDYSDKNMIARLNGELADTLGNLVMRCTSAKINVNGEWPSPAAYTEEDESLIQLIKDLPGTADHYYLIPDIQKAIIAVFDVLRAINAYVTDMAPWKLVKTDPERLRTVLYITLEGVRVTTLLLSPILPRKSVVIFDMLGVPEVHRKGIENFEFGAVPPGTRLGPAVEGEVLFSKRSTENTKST

[12] = target: T3, Methionyl-tRNA synthetase, putative; assay type: functional, Trypanosoma brucei brucei strain 927/4 GUTat10.1; remark: listed apart in the source
[13] = cytotoxicity in HeLa cells, dose response, cytotoxicity control, cell-based, 24 h, dry powder, set 2 (AID 651774); assay type: functional
[14] = target: T2, Oxysterols receptor LXR-beta; assay type: functional, cell-based; remark: listed apart in the source
[15] = IGROV1 ovarian cancer cell cytotoxicity, dose response, PAX8 inhibitor project, plate reader, dry powder samples (AID 743043); assay type: functional, cell-based; settings: IGROV-1
[16] = NIH:OVCAR-3 ovarian cancer cell cytotoxicity, dose response, PAX8 inhibitor project, plate reader, dry powder samples (AID 743044); assay type: functional, cell-based
[17] = IOSE-T80 ovarian epithelial cell cytotoxicity, dose response, cytotoxicity control for PAX8 inhibitor project, plate reader, dry powder samples (AID 743045); assay type: functional, cell-based
Paired box protein Pax-8 = Paired box protein Pax-8 (Homo sapiens, UniProt Q06710); assay: inhibitors of PAX8-driven TPO luciferase reporter, dose response, RMG-I cells, cherry-pick (AID 687027); assay type: functional, cell-based;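 note: luciferase reporter driven by Pax8 target thyroperoxidase promoter measured by SteadyGlo luminescence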
[18] = A2780 ovarian cancer cell cytotoxicity, dose response, cytotoxicity control, plate reader, dry powder samples (AID 743046); assay type: functional, cell-based
[19] = cytotoxicity in OVCAR8 ovarian cancer cells, dose response, PAX8 project, cell-based, plate reader, dry powder samples (AID 743197); assay type: functional; settings: OVCAR-8
[20] = target: NAD-dependent protein deacylase sirtuin-5, mitochondrial (Homo sapiens, UniProt Q9NXA8); assay: SIRT5 desuccinylase inhibitors, dose response, biochemical, fluorescence imaging, cherry-pick, set 5 (AID 720591);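 note: desuccinylation of succinyl peptide AMC substrate read as fluorescence after trypsin release; potency of inhibitors that lower fluorescence and may act on trypsin instead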
[21] = target: Disintegrin and metalloproteinase domain-containing protein 17 (Homo sapiens, UniProt P78536); assay: ADAM17 protease inhibitors, dose response, counter-screen for ADAM10 exosite inhibitor project, biochemical, quenched FRET substrate (AID 743253)
[22] = ADAM10 inhibitors, peptide cleavage, dose response, biochemical, QFRET (AID 743254);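 note: ADAM10 enzyme with the DM2 quenched FRET peptide as substrate; EDANS fluorescence gain as the protease cuts the substrate; inhibitor potency against ADAM10 proteolytic activity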

T2 sequence (P55055 whole entry): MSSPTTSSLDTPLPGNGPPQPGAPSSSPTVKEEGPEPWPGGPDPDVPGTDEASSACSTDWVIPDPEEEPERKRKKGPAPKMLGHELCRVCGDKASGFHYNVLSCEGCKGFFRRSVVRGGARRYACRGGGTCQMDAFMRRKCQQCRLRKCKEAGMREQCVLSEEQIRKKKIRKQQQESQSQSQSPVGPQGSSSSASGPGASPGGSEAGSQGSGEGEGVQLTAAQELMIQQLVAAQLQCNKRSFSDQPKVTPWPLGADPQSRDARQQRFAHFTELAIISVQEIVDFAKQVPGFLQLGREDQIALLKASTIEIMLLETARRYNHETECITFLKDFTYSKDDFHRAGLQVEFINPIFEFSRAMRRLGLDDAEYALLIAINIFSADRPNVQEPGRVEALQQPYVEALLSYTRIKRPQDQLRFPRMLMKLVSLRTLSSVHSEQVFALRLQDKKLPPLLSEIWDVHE
Kallikrein-7, sequence (P49862 whole entry): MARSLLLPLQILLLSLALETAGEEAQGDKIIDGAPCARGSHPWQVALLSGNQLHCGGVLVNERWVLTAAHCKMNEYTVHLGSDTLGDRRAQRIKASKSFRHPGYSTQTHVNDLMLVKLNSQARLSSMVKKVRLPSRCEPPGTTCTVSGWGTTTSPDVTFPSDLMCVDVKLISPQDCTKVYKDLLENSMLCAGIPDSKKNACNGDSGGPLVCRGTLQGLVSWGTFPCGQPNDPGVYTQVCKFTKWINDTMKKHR
Disintegrin and metalloproteinase domain-containing protein 17, sequence (P78536 whole entry, the tested form may be a part): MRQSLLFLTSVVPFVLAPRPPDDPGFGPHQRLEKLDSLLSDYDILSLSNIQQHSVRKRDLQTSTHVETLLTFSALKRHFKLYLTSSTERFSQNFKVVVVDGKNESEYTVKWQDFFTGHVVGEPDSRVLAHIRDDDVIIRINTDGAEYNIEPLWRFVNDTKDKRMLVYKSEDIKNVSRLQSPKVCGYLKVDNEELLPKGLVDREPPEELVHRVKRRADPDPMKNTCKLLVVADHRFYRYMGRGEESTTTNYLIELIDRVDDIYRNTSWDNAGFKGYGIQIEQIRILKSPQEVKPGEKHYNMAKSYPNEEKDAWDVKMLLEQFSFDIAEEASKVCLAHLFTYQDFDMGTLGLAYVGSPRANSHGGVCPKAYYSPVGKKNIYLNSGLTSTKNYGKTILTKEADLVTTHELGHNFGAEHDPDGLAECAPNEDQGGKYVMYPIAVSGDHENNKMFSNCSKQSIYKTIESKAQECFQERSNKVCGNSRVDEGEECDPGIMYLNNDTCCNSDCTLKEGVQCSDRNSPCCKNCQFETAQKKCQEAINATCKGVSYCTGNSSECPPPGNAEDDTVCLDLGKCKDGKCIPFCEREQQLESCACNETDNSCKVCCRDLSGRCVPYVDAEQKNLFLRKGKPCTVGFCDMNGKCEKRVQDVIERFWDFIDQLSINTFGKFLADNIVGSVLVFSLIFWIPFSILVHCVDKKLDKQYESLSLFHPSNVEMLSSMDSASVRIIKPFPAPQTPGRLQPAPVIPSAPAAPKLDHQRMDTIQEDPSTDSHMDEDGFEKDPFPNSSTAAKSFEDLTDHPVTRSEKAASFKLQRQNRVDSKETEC
Endoplasmic reticulum aminopeptidase 1, sequence (Q9NZ08 whole entry): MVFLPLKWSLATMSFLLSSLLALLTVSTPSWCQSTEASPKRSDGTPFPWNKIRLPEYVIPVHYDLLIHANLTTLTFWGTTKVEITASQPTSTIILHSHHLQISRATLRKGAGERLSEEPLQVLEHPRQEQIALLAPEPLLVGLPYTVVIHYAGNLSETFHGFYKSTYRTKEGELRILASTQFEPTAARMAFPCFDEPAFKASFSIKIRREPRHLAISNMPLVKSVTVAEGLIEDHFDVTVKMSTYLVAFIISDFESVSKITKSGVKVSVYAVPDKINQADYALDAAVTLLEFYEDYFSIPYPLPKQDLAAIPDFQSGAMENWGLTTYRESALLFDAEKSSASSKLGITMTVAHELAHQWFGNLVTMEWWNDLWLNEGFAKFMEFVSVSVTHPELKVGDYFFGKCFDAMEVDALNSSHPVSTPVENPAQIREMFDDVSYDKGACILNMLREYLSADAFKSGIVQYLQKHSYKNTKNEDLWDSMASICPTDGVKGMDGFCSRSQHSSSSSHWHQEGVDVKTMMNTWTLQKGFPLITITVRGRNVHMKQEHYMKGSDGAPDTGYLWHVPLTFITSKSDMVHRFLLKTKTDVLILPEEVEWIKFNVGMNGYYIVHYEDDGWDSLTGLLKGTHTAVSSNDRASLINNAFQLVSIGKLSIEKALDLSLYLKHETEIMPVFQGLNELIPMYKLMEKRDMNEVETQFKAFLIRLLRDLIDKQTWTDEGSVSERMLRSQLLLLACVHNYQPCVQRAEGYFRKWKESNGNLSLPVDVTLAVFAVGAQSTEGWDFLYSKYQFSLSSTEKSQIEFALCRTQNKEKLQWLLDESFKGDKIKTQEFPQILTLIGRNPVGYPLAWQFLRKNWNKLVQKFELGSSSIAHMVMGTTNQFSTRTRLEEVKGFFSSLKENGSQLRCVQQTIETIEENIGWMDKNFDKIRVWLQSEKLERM
NAD-dependent protein deacylase sirtuin-5, mitochondrial, sequence (Q9NXA8 whole entry, the tested form may be a part): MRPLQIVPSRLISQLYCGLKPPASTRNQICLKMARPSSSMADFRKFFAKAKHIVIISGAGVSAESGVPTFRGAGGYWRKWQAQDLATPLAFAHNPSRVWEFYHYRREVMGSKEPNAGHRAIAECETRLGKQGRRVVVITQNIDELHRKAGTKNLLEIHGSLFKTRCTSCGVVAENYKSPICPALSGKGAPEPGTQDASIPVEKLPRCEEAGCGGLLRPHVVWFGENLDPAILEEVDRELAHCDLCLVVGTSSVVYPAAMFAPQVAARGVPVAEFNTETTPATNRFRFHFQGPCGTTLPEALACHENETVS
Paired box protein Pax-8, sequence (Q06710 whole entry): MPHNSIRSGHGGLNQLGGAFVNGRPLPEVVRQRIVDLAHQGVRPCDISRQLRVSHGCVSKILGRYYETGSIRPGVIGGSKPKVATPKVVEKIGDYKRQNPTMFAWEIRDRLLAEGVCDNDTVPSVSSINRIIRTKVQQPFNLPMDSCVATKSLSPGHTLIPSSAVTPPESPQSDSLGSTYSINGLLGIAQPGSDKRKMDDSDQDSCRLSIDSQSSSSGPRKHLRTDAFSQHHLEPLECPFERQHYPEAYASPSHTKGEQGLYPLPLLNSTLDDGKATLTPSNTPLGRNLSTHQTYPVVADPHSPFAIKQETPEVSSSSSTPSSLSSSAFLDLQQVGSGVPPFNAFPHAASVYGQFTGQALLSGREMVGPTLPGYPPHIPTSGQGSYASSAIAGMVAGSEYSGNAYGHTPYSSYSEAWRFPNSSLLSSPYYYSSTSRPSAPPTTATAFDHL

With `O=[N+]([O-])c1ccc(-c2c(-c3ccccc3)ncc3cc(F)ccc23)cc1` the EC50 [1] was > 29.9 µM (inactive), the IC50 [2] was 4.77 µM (active) and the IC50 [3] was > 29.9 µM (inactive). The EC50 [4] was > 29.9 µM (inactive).
In the case of `C/C(=N\Nc1ccccc1[N+](=O)[O-])c1ccccc1O`, the EC50 (cells [5]) is reported as > 67.6 µM (inactive) and the EC50 [6] is reported as > 67.6 µM (inactive).
For `COC(=O)c1ccc(N2C(c3cc(OC)cc(OC)c3)=Cc3ccc(-c4cccnc4)cc3C2CC(=O)C2CC2)cc1` (centres undefined), the EC50 (Kallikrein-7) was 38.9 µM (inactive).
With `Cc1cccn2c(=O)c(/C=C(\C#N)C(N)=O)c(Oc3ccccc3)nc12` the AC50 (cells [7]) was 8.22 µM (active).
With `CN1c2ccc(-c3ccc(C#N)cc3)cc2[C@@H]2[C@@H](CCN2C(=O)CC2CC2)[C@@H]1CO` the AC50 [8] was 19.8 µM (active).
With `CC(=O)c1ccc(N2CCN(C(=O)CCCn3c(=O)[nH]c4ccc(Br)cc4c3=O)CC2)cc1` the IC50 [9] was 25.9 µM (inactive), the IC50 [10] was 53.2 µM (inactive) and the IC50 [11] was 1.48 µM (active). The IC50 [12] was 0.579 µM (active).
For `CCc1ccc(C(=O)Nc2nnnn2CC)cc1`, the AC50 [13] was > 70 µM (inactive).
For `Cc1ccc(SCCN2CCC(C)CCC2=O)cc1` (centres undefined), the EC50 [14] was > 67.5 µM (inactive).
With `C[C@@H]1CCCCO[C@H](CN(C)Cc2ccncc2)[C@H](C)CN([C@@H](C)CO)C(=O)c2cc(NC(=O)NC3CCCCC3)ccc2O1` the AC50 [15] was 25.5 µM (active), the AC50 [16] was 18.7 µM (active) and the AC50 [17] was 36.7 µM (active). For the same compound, the AC50 (Paired box protein Pax-8) was 11.3 µM (active), the AC50 [18] was 36.1 µM (active) and the AC50 [19] was 68.3 µM (active).
For `COc1ccc(-c2csc3ncnc(O)c23)cc1`, the AC50 [20] was 15.6 µM (active).
With `O=S(=O)(NCC(Nc1ccc(Cl)cc1)c1ccccc1)c1ccccc1` (centres undefined) the IC50 [21] was > 69.5 µM (inactive) and the IC50 [22] was 11.4 µM (inactive).
